# According to publication PMC12259270, “Sensory neuron–expressed FGF13 controls nociceptive signaling in diabetic neuropathy models” (The Journal of Clinical Investigation, 2025):
# Several values for one entry are separate records, joined by “and”; a condition that tells them apart may be missing. Equal values may be shown once. Residues, ends and D or L forms follow the SMILES beside them. *: point of attachment. Cbz = O=C(OCc1ccccc1)*; NHPh = c1ccc(N*)cc1; OtBu = CC(C)(C)O*
# Columns and labels:
# C57BL/6 mice = assay: Mechanical allodynia/hyperalgesia induced by intrathecal AAV2-FGF13-GFP (von Frey); assay type: in vivo, mouse
# [1] = Blood pressure and body weight after dosing, C57BL/6 mice; details: for Diastolic / MAP / Systolic / Body weight, Pre-dose / Body weight, Terminal: PW164 15 mpk i.d.
# [2] = target: T1, FGF13/Nav1.7M1830A complex (Homo sapiens, UniProt Q15858+Q92913, M1830A); assay: LCA, CLuc-FGF13/CD4-Nav1.7M1830A-NLuc; assay type: cell-based; details: ZL192 50 μM
# T1 construct: Full-length FGF13-1b (aa 1-192) was subcloned into appropriate plasmids; Nav1.7 residues 1780-1977; expressed in transfected cells; host or cells: HEK293 (inferred; the LCA paragraph only says 'cells')
# Excerpt: The respective gene ID numbers used in this study are as follows: NM_033642 (human, FGF13-1b) and NM_002977 (human SCN9A). Full-length FGF13-1b (aa 1-192) was subcloned into appropriate plasmids for use in this investigation, unless otherwise noted. For consistency with AlphaFold modeling presented, numbering of point mutations to FGF13-1b are based on the longest FGF13 isoform (FGF13-1a, NM_004114.2). CLuc-FGF13, […]
# and constructs expressing the CLuc or the NLuc fragments of Firefly ( Photinus pyralis) luciferase (24) respectively were engineered, mutated (CLuc-FGF13R110A) and sequenced at the Molecular Genomics Core (University of Texas Medical Branch). […]
# Twenty-four hours post transfection, cells were trypsinized using TrypLE (Gibco; cat # 12604013), centrifuged at 1750 rpm for 5 min, triturated in medium, and seeded into white clear-bottom 96-well CELLSTAR µClear® plates (Greiner Bio -One; cat # 655073 ) at ~0.8 x 10^5 cells per well in 200 µl of medium. […] The bioluminescence reaction was initiated by injection of 100 μl of D -luciferin substrate (1.5 mg/ml dissolved in PBS) using a Synergy H4 multimode microplate reader (BioTek). Luminescence readings were initiated after 3 s of mild plate shaking and performed at 2 min intervals for 20-30 min with integration times of 0.5 s, and the c ells were maintained throughout the measurements at 37 °C. […]
# [3] = 0h after dosing, individual No. 85, 87, 88, 89, 91, 15 mg/kg
# [4] = 2h after dosing, individual No. 85, 87, 88, 89, 91, 15 mg/kg
# [5] = 8h after dosing, individual No. 85, 87, 88, 89, 91, 15 mg/kg
# [6] = individual No. 85, 87, 88, 89, 91, 15 mg/kg
# T1 sequence (Q92913 1-192 isoform Q92913-2, stated change not applied): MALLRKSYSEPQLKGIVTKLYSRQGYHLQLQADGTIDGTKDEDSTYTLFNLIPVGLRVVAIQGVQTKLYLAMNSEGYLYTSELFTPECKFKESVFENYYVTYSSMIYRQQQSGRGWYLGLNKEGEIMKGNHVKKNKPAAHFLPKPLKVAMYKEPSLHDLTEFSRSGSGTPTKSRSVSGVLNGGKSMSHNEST
# T1 sequence (Q15858 1791-1988 M1830A): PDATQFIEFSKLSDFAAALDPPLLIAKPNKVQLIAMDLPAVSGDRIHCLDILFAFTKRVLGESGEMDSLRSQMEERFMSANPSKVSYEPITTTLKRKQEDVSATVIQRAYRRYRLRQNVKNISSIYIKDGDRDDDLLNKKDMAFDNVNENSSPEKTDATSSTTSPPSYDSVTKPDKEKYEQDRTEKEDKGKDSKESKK
compound,measurement,setting,value
COC(=O)[C@@H](NC(=O)[C@H](CCC(=O)OC(C)(C)C)NC(=O)[C@H](CC(C)C)NC(=O)[C@@H]1CCCN1C(=O)OCc1ccccc1)C(C)C [PW164] (Cbz-PLE(OtBu)V-OMe),HVF,"C57BL/6 mice; Figure 6E, PW164 0.7 mg/ml, 1h 30 min",36.67 and 43.33 and 50 and 46.67 and 33.33 and 40
same,allodynia and hyperalgesia in AAV2-FGF13-GFP mice,"C57BL/6 mice; day 68, PW164 5 μL, 0.7 mg/mL",complete recovery
same,Diastolic,"[1]; 0h after dosing, Mean",81
same,MAP,"[1]; 0h after dosing, Mean",92
same,Systolic,"[1]; 0h after dosing, Mean",114
same,Diastolic,[1]; [3],95 and 77 and 98 and 72 and 63
same,MAP,[1]; [3],105 and 81 and 78 and 103 and 92
same,Systolic,[1]; [3],120 and 101 and 108 and 118 and 121
same,Diastolic,"[1]; 2h after dosing, Mean",74
same,MAP,"[1]; 2h after dosing, Mean",85
same,Systolic,"[1]; 2h after dosing, Mean",109
same,Diastolic,[1]; [4],75 and 64 and 68 and 76 and 85
same,MAP,[1]; [4],86 and 76 and 79 and 92 and 93
same,Systolic,[1]; [4],107 and 100 and 103 and 125 and 111
same,Diastolic,"[1]; 8h after dosing, Mean",81
same,MAP,"[1]; 8h after dosing, Mean",93
same,Systolic,"[1]; 8h after dosing, Mean",119
same,Diastolic,[1]; [5],78 and 94 and 81 and 74 and 76
same,MAP,[1]; [5],89 (3×) and 103 and 95
same,Systolic,[1]; [5],114 and 121 and 123 and 120 and 117
same,"Body weight, Pre-dose",[1]; Mean,25.3 g
same,"Body weight, Terminal",[1]; Mean,24.8 g
same,"Body weight, Pre-dose",[1]; [6],25.7 g and 27.0 g and 24.4 g (2×) and 25.0 g
same,"Body weight, Terminal",[1]; [6],24.9 g and 26.8 g and 23.9 g and 23.8 g and 24.5 g
same,blood pressure or body weight changes,[1]; up to 8 hours after injection,No changes
CC(=O)N[C@@H](Cc1ccccc1)C(=O)N[C@@H](CC(C)C)C(=O)N1CCC[C@H]1C(=O)N[C@@H](CCCCN)C(=O)Nc1ccccc1 [ZL192] (Ac-FLPK-NHPh),agonist activity against the FGF13/Nav1.7M1830A complex,[2],no agonist activity
